The source made the active and inactive calls. No cut-off for these calls is given here.
Assays:
[1] = test system: A2780; test: Cytotoxicity against human A2780 cells assessed as reduction in cell viability at 5 to 100 uM incubated for 24 hrs by MTT assay; assay type: functional, cell-based
[2] = test system: A2780; test: Induction of apoptosis in human A2780 cells assessed as caspase-9 activation at 50 to 100 uM incubated for 24 hrs by Western blot; assay type: functional, cell-based
[3] = test system: LLC-PK1; test: Cytotoxicity against LLC-PK1 cells assessed as reduction in cell viability at 5 to 100 uM incubated for 24 hrs by MTT assay; assay type: cell-based; conditions: Sus scrofa, LLC-PK1, 24 h
[4] = test system: HeLa; test: Cytotoxicity against human HeLa cells assessed as reduction in cell viability at 5 to 100 uM incubated for 24 hrs by MTT assay; assay type: functional, cell-based
[5] = test system: MCF7; test: Cytotoxicity against human MCF7 cells assessed as reduction in cell viability at 5 to 100 uM incubated for 24 hrs by MTT assay; assay type: functional, cell-based
[6] = test system: A2780; test: Induction of apoptosis in human A2780 cells assessed as induction of cell blebbing at 50 to 100 uM incubated for 24 hrs by Hoechst 33342 staining based fluorescence microscopy; assay type: functional
[7] = test system: A2780; test: Induction of apoptosis in human A2780 cells assessed as induction of cell shrinkage at 50 to 100 uM incubated for 24 hrs by Hoechst 33342 staining based fluorescence microscopy; assay type: functional
[8] = test system: A2780; test: Induction of apoptosis in human A2780 cells assessed as induction of cell condensation at 50 to 100 uM incubated for 24 hrs by Hoechst 33342 staining based fluorescence microscopy; assay type: functional
[9] = test system: A2780; test: Induction of apoptosis in human A2780 cells assessed as caspase-8 activation at 50 to 100 uM incubated for 24 hrs by Western blot; assay type: functional, cell-based
[10] = test system: A2780; test: Induction of apoptosis in human A2780 cells assessed as caspase-3 activation at 50 to 100 uM incubated for 24 hrs by Western blot; assay type: functional, cell-based
[11] = test system: A2780; test: Induction of apoptosis in human A2780 cells assessed as PARP cleavage at 50 to 100 uM incubated for 24 hrs by Western blot; assay type: functional, cell-based
[12] = test system: A2780; test: Induction of apoptosis in human A2780 cells assessed as BID cleavage at 50 to 100 uM incubated for 24 hrs by Western blot; assay type: functional, cell-based
[13] = test system: A2780; test: Induction of apoptosis in human A2780 cells assessed as increase in BAX protein level at 50 to 100 uM incubated for 24 hrs by Western blot; assay type: functional, cell-based
[14] = test system: A2780; test: Induction of apoptosis in human A2780 cells assessed as reduction in Bcl-2 protein level at 50 to 100 uM incubated for 24 hrs by Western blot; assay type: functional, cell-based

SMILES: COc1cc([C@H]2c3cc(O)c(OC)cc3C[C@@H](CO)[C@@H]2CO[C@@H]2O[C@@H](C)[C@H](O)[C@@H](O)[C@H]2O)ccc1O
- Activity [1]: inactive

SMILES: COc1cc([C@@H]2c3cc(O)c(OC)cc3C[C@H](CO)[C@H]2CO[C@@H]2O[C@@H](C)[C@H](O)[C@@H](O)[C@H]2O)ccc1O
- Activity [1]: inactive

SMILES: COc1cc([C@@H]2c3c(cc(OC)c(O)c3OC)C[C@H](CO)[C@H]2CO[C@@H]2O[C@@H](C)[C@H](O)[C@@H](O)[C@H]2O)cc(OC)c1O
- Activity [2]: inactive
- Activity [1]: Dose-dependent effect
- IC50 ([1]; A2780, 24 h): 35.4 µM
- IC50 [3]: > 100 µM
- Activity [4]: inactive
- Activity [5]: inactive
- Activity [6]: Active
- Activity [7]: Active
- Activity [8]: Active
- Activity [9]: Active
- Activity [10]: Active
- Activity [11]: Active
- Activity [12]: Active
- Activity [13]: Active
- Activity [14]: Active

SMILES: O=c1c(O[C@@H]2O[C@H](CO)[C@@H](O)[C@H](O)[C@H]2O)c(-c2ccc(O)cc2)oc2cc(O)cc(O)c12
- Activity [1]: inactive

SMILES: O=c1cc(-c2ccc(O)c(O)c2)oc2c([C@@H]3O[C@H](CO)[C@@H](O)[C@H](O)[C@H]3O)c(O)cc(O)c12
- Activity [1]: inactive

SMILES: COc1cc(C(=O)O)cc(OC)c1O
- Activity [1]: Active

SMILES: O=c1c(O)c(-c2ccc(O)cc2)oc2cc(O[C@@H]3O[C@H](CO)[C@@H](O)[C@H](O)[C@H]3O)cc(O)c12
- Activity [1]: inactive

SMILES: COc1cc(C(=O)O)ccc1O
- Activity [1]: inactive

SMILES: COc1cc2c(cc1O)[C@H](c1cc(OC)c(O)c(OC)c1)[C@@H](CO[C@@H]1O[C@@H](C)[C@H](O)[C@@H](O)[C@H]1O)[C@H](CO)C2
- Activity [1]: inactive

From ChEMBL document CHEMBL4177733, “(-)-9'-O-(α-l-Rhamnopyranosyl)lyoniresinol from Lespedeza cuneata suppresses ovarian cancer cell proliferation through induction of apoptosis” (Bioorg Med Chem Lett, 2018)
